Assay results: patent US10660874B2, “Ecteinamycin, compositions and uses thereof” (Wisconsin Alumni Research Foundation, priority 2014, dated 2020)
Values after ≈ are worked out from the molar mass of the structure shown.

Key:
[1] = system: P. aeruginosa (ATCC #27853); test: MIC, dilution antimicrobial susceptibility test; format: cell-based; conditions: Pseudomonas aeruginosa, ATCC27853, 33° C., 18 h
Procedure: (§1) Ecteinamycin was tested for antibacterial activity against C. difficile (ATCC BAA-1870), MRSA (ATCC #33591), MSSA (ATCC #29213), E. coli (ATCC #25922), P. aeruginosa (ATCC #27853), and VRE (ATCC), and MICs were determined using a dilution antimicrobial susceptibility test for aerobic (MRSA, MSSA, E. coli, P. aeruginosa, and VRE) and anaerobic (C. difficile) bacteria. Ecteinamycin was dissolved in DMSO, serially diluted to 10 concentrations (0.0313-32 μg/mL), and tested in a 96-well plate. […] Ecteinamycin and vancomycin were tested in triplicate. Six untreated media controls were included on each plate. For MRSA, MSSA, E. coli, and P. aeruginosa, the plates were incubated at 33° C. for 18 h. For C. difficile, the plate was incubated at 36° C. for 48 h anaerobically and then read visually using a mirror apparatus. All manipulations to the plate were done inside the anaerobe chamber. The MIC was determined as the lowest concentration that inhibited visible growth.

E. coli (ATCC #25922) = test: MIC, dilution antimicrobial susceptibility test; format: cell-based; conditions: Escherichia coli, ATCC25922, 33° C., 18 h
Procedure: as §1

E. coli deletion mutants = test: Chemical genomic profiling in E. coli deletion mutants; format: cell-based, Escherichia coli
Procedure: Chemical genomic profiling was also performed in Escherichia coli to further investigate the mechanism of action of ecteinamycin. Similar to the chemical genomic profiling with yeast, ecteinamcyin was screened against over 6,000 deletion mutant E. coli strains, genomic DNA was extracted, and mutant-specific DNA barcodes were amplified and sequenced by Illumina sequencing. Ecteinamycin sensitive and resistant mutants were determined by quantification of DNA-barcodes in order to provide a chemical genomic profile to aid in evaluating the mechanism of action (Table 7).

## C=C1OC(=O)C(C(=O)CC2OC(C(C)C(O)C(CC)C(=O)C(C)(O)C3CCC(CC)(C4CCC(O)(C(C)OC)C(C)O4)O3)C(C)CC2C)=C1O (stereo not shown) [ecteinamycin]
[1]
  MIC: 8 µg/mL (≈ 11.3 µM)
E. coli (ATCC #25922)
  MIC: 16 µg/mL (≈ 22.6 µM)
E. coli deletion mutants; acrA deletion mutant
  Fold Change in abundance relative to solvent control: 0.087
E. coli deletion mutants; acrB deletion mutant
  Fold Change in abundance relative to solvent control: 0.189
E. coli deletion mutants; atpA deletion mutant
  Fold Change in abundance relative to solvent control: 0.280
E. coli deletion mutants; atpF deletion mutant
  Fold Change in abundance relative to solvent control: 0.207
E. coli deletion mutants; csgE deletion mutant
  Fold Change in abundance relative to solvent control: 0.369
E. coli deletion mutants; dksA deletion mutant
  Fold Change in abundance relative to solvent control: 0.187
E. coli deletion mutants; fis deletion mutant
  Fold Change in abundance relative to solvent control: 0.416
E. coli deletion mutants; hupA deletion mutant
  Fold Change in abundance relative to solvent control: 0.518
E. coli deletion mutants; kdpD deletion mutant
  Fold Change in abundance relative to solvent control: 0.374
E. coli deletion mutants; ldcA deletion mutant
  Fold Change in abundance relative to solvent control: 0.341
E. coli deletion mutants; rpoS deletion mutant
  Fold Change in abundance relative to solvent control: 0.350
E. coli deletion mutants; sapB deletion mutant
  Fold Change in abundance relative to solvent control: 0.241
E. coli deletion mutants; sapD deletion mutant
  Fold Change in abundance relative to solvent control: 0.197
E. coli deletion mutants; trkA deletion mutant
  Fold Change in abundance relative to solvent control: 0.145
E. coli deletion mutants; ycdR deletion mutant
  Fold Change in abundance relative to solvent control: 0.287
E. coli deletion mutants; yhjK deletion mutant
  Fold Change in abundance relative to solvent control: 0.485
E. coli deletion mutants; yraP deletion mutant
  Fold Change in abundance relative to solvent control: 0.365
